Assay results: patent publication US20200237773A1, “THERAPEUTIC COMBINATION OF A THIRD-GENERATION EGFR TYROSINE KINASE INHIBITOR AND A RAF INHIBITOR” (Novartis AG, priority 2017, published 2020)

Assays:
EGFR-mutant NSCLC = assay: Previous study of EGF816 at 100 mg and 150 mg daily; format: in vivo, human; conditions: 100 mg daily compared with 150 mg daily
[1] = system: EGFR mutant NSCLC cell lines HCC4006, HCC827, PC9, MGH707; assay: Long-term viability assay (confluence, 14 days); format: cell-based
Procedure: FIG. 2A and FIG. 2B: Dose response of Compound B (“Cmpd B”) in EGFR mutant NSCLC lines in combination with Compound A (EGF816) (“Cmpd A”) (300 nM) (FIG. 2A: HCC4006 and HCC827 cell lines. FIG. 2B: PC9 and MGH707 cell lines). Cells were treated with fresh drug and imaged for confluence measurement twice per week for two weeks. Cell confluence was used as a surrogate for cell number. It is shown that a Raf-inhibitor in combination with EGF816 slows drug-tolerant cell outgrowth.
Combinations of Compound A and Compound B were further examined in long-term drug combination growth assays. The same EGFR mutant NSCLC cell lines as were used in Example 1 above were treated with EGF816 alone or EGF816 in combination with Compound B across a 5-dose range for 14 days as follows.
PC9 (6000/well), HCC827 (4000/well), HCC4006 (5000/well), and MGH707 (5000/well) cells were plated into 96-well plates and the following day treated with EGF816 (300 nM) +either DMSO or a range of doses of either Compound B (0.03, 0.1, 0.3, 1 and 3 uM) for two weeks. Drug was refreshed twice per week. Cell confluence was used as a surrogate for cell number and was measured by an incucyte zoom at t=0, 4, 7, 10 and 14 days treatment.

wild-type (WT) EGFR [2] = biological target: T1, wild-type (WT) EGFR (Homo sapiens, UniProt P00533); assay: Inhibition of wild-type EGFR by Compound A; conditions: at clinically relevant efficacious concentrations
T1 sequence (P00533 25-1210): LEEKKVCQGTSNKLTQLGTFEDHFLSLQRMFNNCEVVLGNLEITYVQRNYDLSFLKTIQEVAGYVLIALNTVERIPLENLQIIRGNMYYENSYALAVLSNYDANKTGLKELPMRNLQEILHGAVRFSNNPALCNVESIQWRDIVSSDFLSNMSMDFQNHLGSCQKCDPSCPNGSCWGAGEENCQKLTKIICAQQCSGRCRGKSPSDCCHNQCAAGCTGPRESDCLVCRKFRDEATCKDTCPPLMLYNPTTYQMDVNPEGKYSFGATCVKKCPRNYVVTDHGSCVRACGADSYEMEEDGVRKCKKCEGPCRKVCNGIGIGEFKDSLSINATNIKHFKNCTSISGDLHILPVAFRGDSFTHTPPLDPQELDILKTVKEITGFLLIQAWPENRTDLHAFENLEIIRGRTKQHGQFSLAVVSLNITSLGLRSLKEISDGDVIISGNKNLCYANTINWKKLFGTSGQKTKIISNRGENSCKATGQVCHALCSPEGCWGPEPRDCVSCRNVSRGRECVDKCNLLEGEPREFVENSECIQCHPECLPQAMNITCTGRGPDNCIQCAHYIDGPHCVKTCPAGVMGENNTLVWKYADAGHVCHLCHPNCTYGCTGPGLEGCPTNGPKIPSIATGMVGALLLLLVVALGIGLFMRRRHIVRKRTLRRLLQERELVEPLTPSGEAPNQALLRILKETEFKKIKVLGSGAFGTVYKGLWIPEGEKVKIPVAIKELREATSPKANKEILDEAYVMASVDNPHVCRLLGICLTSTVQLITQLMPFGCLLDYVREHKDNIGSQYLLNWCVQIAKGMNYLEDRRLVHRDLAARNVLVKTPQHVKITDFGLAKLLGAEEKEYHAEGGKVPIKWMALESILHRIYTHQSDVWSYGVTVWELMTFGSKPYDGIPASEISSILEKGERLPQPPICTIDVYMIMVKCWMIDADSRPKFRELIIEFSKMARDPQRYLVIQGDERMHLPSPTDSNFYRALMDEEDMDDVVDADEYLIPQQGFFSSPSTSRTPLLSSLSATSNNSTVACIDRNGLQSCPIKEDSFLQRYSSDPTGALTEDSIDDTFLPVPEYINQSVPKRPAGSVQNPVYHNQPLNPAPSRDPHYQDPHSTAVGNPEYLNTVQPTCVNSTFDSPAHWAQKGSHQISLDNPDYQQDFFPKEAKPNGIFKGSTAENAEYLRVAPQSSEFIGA

wild-type (WT) EGFR [3] = biological target: T1, wild-type (WT) EGFR; conditions: cited from earlier work
[4] = system: EGFR mutant NSCLC cell lines HCC4006, HCC827, PC9, MGH707; assay: Short-term viability assay (CellTiter-Glo, 5 days); format: cell-based
Procedure: FIG. 1A and FIG. 1B: Dose response curves in EGFR mutant NSCLC cell lines (FIG. 1A: HCC4006 and HCC827 cell lines. FIG. 1B: PC9 and MGH707 cell lines). for Compound B in the presence of DMSO (curves at the top of Figures) or 300nM EGF816 (“Cmpd A”-curves at the bottom of Figures). % Activity is a measure of cell number as read out by cell-titer glo. 0 represents the CTG value at Day 0 and 100 represents the value of untreated growth at day 5.
The potential efficacy of adding a MAPK pathway inhibitor such as Compound B to a third-generation EGFR tyrosine kinase inhibitor such as EGF816 in EGFR mutant NSCLC was assessed as follows. A panel of EGFR mutant NSCLC cell lines was treated with a fixed dose (300 nM) of
EGF816 (“Compound A”) or DMSO in combination with Compound B across a 10-dose range for 5 days.
PC9, HCC827, HCC4006, NCI-H1975 and MGH707 are all EGFR mutant NSCLC cell lines sensitive to EGF816. PC9, HCC827, HCC4006 and NCI-H1975 were obtained from the cancer cell line encyclopedia (CCLE) database. MGH707 were obtained from Massachusetts General Hospital. All cell lines were maintained in RMPI media supplemented with 10% fetal bovine serum.
Compound A (EGF816) and Compound B were all re-suspended in DMSO at a concentration of 10 mM for a stock solution and further diluted for the experiments as indicated.
The following EGFR mutant (EGFR mt) NSCLC cell lines were plated at the following densities: HCC827 (exon 19 deletion, or ex19del for short) (500/well), HCC4006 (ex19del) (500/well), PC9 (ex19del)(500/well), and MGH707 parental (1000/well) into white 384-well plates (#3707, Corning, Oneonta, N.Y., USA) and stored in an incubator overnight at 37° C., 95% relative humidity, and 5% CO2. Compounds were serial diluted (1:3 dilution) in DMSO in an acoustic plate (#P-05525, Labcyte, San Jose, Calif., USA) using a Biomek liquid handler (Beckman, Indianapolis, Ind., USA). Compound A was dispensed into the first row of a Labcyte P-05525 source plate. The compound plates were then used to deliver combinations to assay plates using an acoustic dispenser (Echo-555, Labcyte, San Jose, Calif., USA). Each dispense was 50 nL which achieved a 1:1000 dilution (ie. 50 nL dispense of a 10 mM compound becomes 10 uM in 50 uL of cell solution). The combination treatment included a second dispense of 50 nL of Compound A to achieve a final concentration of 0.3 uM. Upon completion of dosing each assay plate was returned to an incubator (37° C., 95% relative humidity, and 5% CO2). 25 uL/well of CellTiter-Glo One Solution cell viability reagent (#G8462, Promega, Madison, Wis., USA) was added to an untreated plate of each cell line using a bulk dispenser (EL406, Biotek, Winooski, Vt., USA) and after 20 minutes of incubation at room temperature, the plates were read on a microplate reader (Envision, Perkin Elmer, Hopkington, Mass., USA). […] After 5 days of incubation, the assay plates are read using the same CellTiter-Glo assay reagent and read on the Envision microplate reader.

xenograft models = assay: Xenograft models, Compound A; format: in vivo
[5] = system: EGFR mutant (L858R, ex19del and T790M) cancer models; assay: EGFR mutant cancer models (in vitro and in vivo), Compound A
[6] = system: advanced non-small cell lung cancer (NSCLC) harboring T790M; conditions: cited from earlier work
[7] = system: EGFR activating and acquired resistance mutants (L858R, ex19del and T790M); conditions: cited from earlier work
BRAF kinase = BRAF kinase (Homo sapiens, UniProt P15056); assay: BRAF kinase inhibition; format: biochemical
Chain of BRAF kinase (P15056 whole entry): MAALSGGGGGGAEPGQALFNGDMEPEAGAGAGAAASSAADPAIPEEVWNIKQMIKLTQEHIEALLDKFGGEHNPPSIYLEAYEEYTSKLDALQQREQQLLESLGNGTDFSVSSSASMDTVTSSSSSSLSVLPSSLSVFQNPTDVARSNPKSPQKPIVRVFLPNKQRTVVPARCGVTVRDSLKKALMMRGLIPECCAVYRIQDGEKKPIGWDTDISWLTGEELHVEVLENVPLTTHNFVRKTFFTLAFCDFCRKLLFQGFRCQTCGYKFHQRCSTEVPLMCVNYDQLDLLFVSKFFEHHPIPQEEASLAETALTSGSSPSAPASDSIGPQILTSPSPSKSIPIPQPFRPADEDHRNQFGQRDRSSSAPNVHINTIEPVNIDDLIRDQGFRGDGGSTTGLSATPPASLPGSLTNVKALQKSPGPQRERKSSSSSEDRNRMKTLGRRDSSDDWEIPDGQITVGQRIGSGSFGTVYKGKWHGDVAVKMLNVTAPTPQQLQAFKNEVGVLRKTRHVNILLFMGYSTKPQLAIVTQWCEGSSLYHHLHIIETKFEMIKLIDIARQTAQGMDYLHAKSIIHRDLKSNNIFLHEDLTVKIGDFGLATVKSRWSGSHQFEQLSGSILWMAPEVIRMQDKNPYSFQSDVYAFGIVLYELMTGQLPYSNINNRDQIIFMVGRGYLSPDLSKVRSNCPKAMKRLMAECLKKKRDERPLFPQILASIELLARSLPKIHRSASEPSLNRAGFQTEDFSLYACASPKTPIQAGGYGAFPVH

[8] = Anti-proliferative activity in cancer cell lines with MAPK-activating mutations; format: cell-based; conditions: Homo sapiens; range over A-375, A-375 with BRAFi/MEKi resistance alleles, MEL-JUSO, IPC-298, Calu-6; read-out: IC50, inhibition of proliferation
CYP3A4/5 = CYP3A4/5 inhibition; format: in vitro ADME
456 kinases = assay: Kinase binding selectivity panel; conditions: out of 456 kinases tested
[9] = system: Calu-6 (KRAS Q61K), NCI-H358 (KRAS G12C), Hey-A8 (KRAS G12D, BRAF G464E), SK-MEL-30 xenografts; assay: In vivo tumor xenografts, Compound B
[10] = system: cell lines that have wild-type BRAF and RAS; assay: Anti-proliferative activity in wild-type BRAF and RAS cell lines; format: cell-based; conditions: Homo sapiens, read-out: IC50, inhibition of proliferation

## Cc1cc(C(=O)Nc2nc3cccc(Cl)c3n2[C@@H]2CCCCN(C(=O)/C=C/CN(C)C)C2)ccn1 [Compound A, (R,E)-N-(7-chloro-1-(1-(4-(dimethylamino)but-2-enoyl)azepan-3-yl)-1H-benzo[d]imidazol-2-yl)-2-methylisonicotinamide]
EGFR-mutant NSCLC
  overall response rates: similar
  rates of rash and diarrhoea: lower rates of rash and diarrhoea
[1]; 300 nM EGF816 alone, PC9
  sensitivity to single agent EGF816: more exquisitely sensitive
wild-type (WT) EGFR [2]
  WT EGFR inhibition: no indication of WT EGFR inhibition
wild-type (WT) EGFR [3]
  effect on wild-type EGFR: sparing
[4]; EGF816 alone 300 nM, 5 days, all cell lines
  cell growth (% Activity, cell-titer glo): robust growth suppression
Xenograft models; at efficacious doses
  tolerability / body weight: well tolerated with no body weight loss
Xenograft models; several xenograft models
  anti-tumor efficacy: Dose-dependent anti-tumor efficacy
[5]
  efficacy in EGFR mutant cancer models: significant efficacy
[6]
  antitumor activity in patients: durable antitumor activity
[7]
  inhibition of EGFR mutants: selectively inhibits

## Cc1ccc(NC(=O)c2ccnc(C(F)(F)F)c2)cc1-c1cc(OCCO)nc(N2CCOCC2)c1 [Compound B, N-(3-(2-(2-hydroxyethoxy)-6-morpholinopyridin-4-yl)-4-methylphenyl)-2-(trifluoromethyl)isonicotinamide]
BRAF kinase
  IC50: 0.73 nM
[1]; Compound B 0.03-3 uM with 300 nM EGF816, 14 days
  residual outgrowth of EGFR mutant persister cells (cell confluence): markedly suppressed
[1]; Compound B with 300 nM EGF816, 14 days, MGH707
  response to the combination (cell confluence): most refractory
[1]; Compound B with 300 nM EGF816, 14 days, PC9
  cell number (cell confluence): more pronounced drop in cell number
[8]
  IC50: 200 to 1200 nM
CYP3A4/5
  CYP3A4/5 inhibition: inhibitor of CYP3A4/5
456 kinases
  number of other kinases whose binding is inhibited to a similar degree: 2
[9]; KRAS-mutant Calu-6, NCI-H358, Hey-A8 and NRAS-mutant SK-MEL-30 xenografts
  tumor response: tumor regression
[9]; in all cases
  dose dependence of anti-tumor effects: dose-dependent
  tolerability / body weight: well tolerated with minimal body weight loss
[4]; Compound B added to 300 nM EGF816, 5 days, HCC4006, HCC827 and PC9
  cell growth (% Activity, cell-titer glo): enhanced suppression of cell growth
[4]; Compound B added to 300 nM EGF816, 5 days, MGH707
  cell growth (% Activity, cell-titer glo): less effective
[4]; Compound B single agent (DMSO), 5 days, all cell lines
  cell growth (% Activity, cell-titer glo): suppressed
[4]; with 300 nM EGF816 compared to single agent, HCC4006, HCC827 and PC9
  sensitization to Compound B by EGF816: active at lower doses
[10]
  IC50: > 20000 nM
